How the values were obtained:
[1] = system: HPV containing cell lines as HeLa, SiHa and Caski, compared to HPV-negative cell lines MCF7, HEPG2, (HaCat, HT3, 444); assay: Cell viability (WST1 assay), panel of HPV-positive and HPV-negative cell lines; assay type: cell-based, human; details: for WST1: 50 μM in cell culture; for WST1-spec: 50 μM, HPV containing vs HPV-negative cell lines
Procedure: Zinc finger proteins are required for maintenance of cell viability. Preferably, the compounds for use in the present invention are specific in their ability to affect the viability of MPV containing cells, with little or no cytotoxic effects on the cellular functioning of healthy non-MPV containing cells. The viability of MPV-infected cells (and non infected cells) in the presence of compounds of Formulae (I) or (II) can be measured by incubating with the tetrazolium salt WST1 (Roche Molecular Biochemicals, Manneheim Germany) and measuring the absorption readings thereof (WST1 assay).
All cell lines were obtained from the American Type Culture Collection (Manassas, Va.) unless otherwise noted. SiHa (human cervical epithelial tumor line, HPV16-positive), CaSki (human cervical epithelial tumor line, HPV16-positive), HaCat (immortalized human skin epithelial cell line, HPV-negative), HeLa (human cervical epithelial tumor line, HPV18-positive), 444 (hybrid of HeLa and fibroblast, HPV18-positive) obtained from Eric Stanbridge (Universitv of California, Irvine), MCF7 (human mammary epithelial tumor cell line, HPV-negative), HT3 (human cervical epithelial tumor cell line, HPV-negative) was obtained from the German Cancer Research Institute/DKFZ-Heidelberg, and HepG2, (human liver epithelial tumor cell line, HPV-negative), were grown in Dulbecco's modified Eagle medium (DMEM) supplemented with 10% fetal calf serum, 100 U penicillin and 1000 U streptomycin. Cells were allowed to attach to the surface of microwell dishes overnight and subsequently, incubated with medium containing the zinc ejecting compounds at the concentrations (10–100 μM). Viability of the cells was scored by measuring the absorption of the tetrazolium salt WST1 (Roche Molecular Biochemicals, Mannheim, Germany) in an Elisa-plate reader (Tecan, Salzburg, Austria) at a wavelength of 450 nm and a reference wavelength of 630 nm.
A total of 10 000 cells per well were plated on 24 well plates, after attachment overnight, they were treated 3 times in 3 days with C16 at 10 μM and 50 μM. The activity of C16 was also compared with that of C4 (azodicarbonamide) which causes ejection of zinc from HIV-1 NCp7 and is currently used in clinical trials for the treatment of AIDS.

[2] = molecular target: T1, binding of E6 with E6AP and E6BP (Human papillomavirus type 16, UniProt P03126); parameters: species or system HPV-16; details: for BIACORE (E6BP/E6AP): 400 μM compound, 2 hrs at room temperature, GST-E6 7 μM in 10 mM GSH; for complex formation of GST-E6 with GST-E6AP/GST-E6BP, controls: 5 mM EDTA or 0.6% (170 mM) H2O2, 2 hrs at room temperature
T1 construct: The full length HPV16 E6 gene was amplified via polymerase chain reaction and cloned in the vector pGeX4T2; made in house; host or cells: E. coli strain AB1899
Description: BIACORE allows real time analysis of bimolecular interactions without the need for isotopic or enzymatic labelling. BIACORE technology is based on the optical surface plasmon resonance (SPR), a technique that allows for detecting small changes in the refractive index on the surface of a thin gold film coated with a dextran matrix. Typically, one of the binding partners (termed the ligand) is covalently linked to the dextran matrix, while the other partner (termed the analyte) is introduced in a flow passing over the surface. The change in refractive index resulting from the interaction of the molecules is expressed in resonance units (RU): a SPR response of 1000 RU corresponds to a change of the surface concentration of the analyte of 1 ng protein/mm^2. GST-E6AP and GST-E6BP were used as ligands and GSTE6 was used as the analyte. […] Further controls included using the dextran matrix alone or GST as the ligand.
Binding of GST-E6 to GST-E6BP, GST-E6AP and GST was monitored by surface plasmon resonance (SPR) on a BIACORE 2000 machine (Biacore AB, Uppsala, Sweden). […] Typically 6000–10000 RU of GST, E6BP and E6AP were immobilized on three difference flowcells. Aliquots of purified HPV-16 GST-E6 (7 μM in 10 mM GSH, 50 mM Tris/PBS buffer, pH 8.2) were incubated with either 400 μM compound, or 5 mM EDTA, or 0.6% (170 mM) H2O2 for 2 hrs at room temperature. Then 10 μl of sample was injected at 1 μl/min over the three immobilized ligands using the sequential flow mode. The interactions between GST-E6 and ligands were monitored by the change of resonance signal in arbitrary units (RU).

[3] = molecular target: T2, HPV-16-E6 (recombinant GST-E6 protein) (Human papillomavirus type 16, UniProt P03126); assay: biochemical; assay type: biochemical; details: read-out: TSQ % (% values of Zinc release)
T2 construct: The full length HPV16 E6 gene was amplified via polymerase chain reaction and cloned in the vector pGeX4T2; made in house; host or cells: E. coli strain AB1899
Description: Where the chelated metal is zinc, zinc release can be measured as an increase in the fluorescence of the zinc-selective fluorophore TSQ (N-(6-methoxy-8-quinolyl)-p-toluenesulfonamide) (18) in the presence of the protein and the active compound (TSQ assay).
In such an assay, the increase in fluorescence measured can be described as a percentage of the increase in fluorescence observed for a positive control compound which provides 100% zinc release. A suitable positive control compound is H2O2. Preferred compounds which may be useful in the present invention are those which release at least 30% of the chelated zinc as measured by the TSQ assay. Particularly preferred compounds for use in the present invention are those which release at least 40% of the chelated zinc, more preferably at least 50%.
In earlier studies, reduced glutathione (GSH) was required to elute recombinant glutathione sulfhydryl transferase E6 (recombinant (GST-E6)) protein during the purification process. However, the reducing activity of the GSH sulfhydryl groups protected GST-E6 protein from the chemical attack by agents, such as the disulphide based organic compounds of Formula (I) and (II). […] Individual assays were done in the presence of 9 μg GST-E6 protein, corresponding to a concentration of 1 μM GST-E6 protein and 2 μM bound zinc, assuming the presence of two Zn ions per protein.
Release of zinc from HPV-16-E6 was monitored by the change in fluorescence of the zinc-selective fluorophore TSQ (N-6-methoxy-8-quinolyl)-p-toluenesulfonamide), (Molecular Probes, Eugene, Oreg.) by modification of published procedures (25, 26, 27). In a total reaction volume of 200 μl, 9 μg (1 μM) recombinant GST-E6 protein (corresponding to a concentration of 1 μM), bound to glutathione-sepharose beads, were incubated with 10 μM of each compound or 0.6% (170 mM) H2O2 in TSQ-assay buffer (10 mM sodium phosphate buffer pH7.0, 10% glycerol) for 2 hours at room temperature (200 μl total volume in 96-well plates). Immediately after addition of 100 μM TSQ, the increase in fluorescence was measured on a SLT Fluostar (355 nm excitation filter and 460 nm emission filter, Tecan, Salzburg).
Values given are % values of Zinc release. The relative fluorescence units (RFU) were normalized to the amount of zinc released by H2O2 (regarded as 100%). The concentration of compound used was 10 μM for C27–C35, 13 μM for C37–C83, H2O2 was used at 0.3% for C27–C35 and 0.2% for C37–C83.

T2 sequence (P03126 whole entry): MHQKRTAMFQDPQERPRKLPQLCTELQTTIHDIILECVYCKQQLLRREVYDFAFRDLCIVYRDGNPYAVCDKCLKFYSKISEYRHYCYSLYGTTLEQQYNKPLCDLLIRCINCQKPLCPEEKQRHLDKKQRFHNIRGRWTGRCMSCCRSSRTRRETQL
T1 sequence (P03126 whole entry): as above

Compound	growth inhibition ([1]; any of these six cell lines (FIG. 3))	BIACORE (E6BP/E6AP) [2]	activation at 10 µM [3]	WST1 [1]	activation at 13 µM [3]	WST1-spec [1]	complex formation of GST-E6 with GST-E6AP/GST-E6BP, controls [2]
NC(=O)N=NC(N)=O [Compound C4, azodicarbonamide, reference compound]	did not cause growth inhibition						
O=C1c2ccccc2C(=O)N1SSN1C(=O)c2ccccc2C1=O [Compound C27]		+ (compound interferes in binding of E6 with E6AP and E6BP, binding is less than 50% of the corresponding E6-DMSO value.)	103%	+			
S=C(SSC(=S)N1CCOCC1)N1CCOCC1 [Compound C32]		+ (compound interferes in binding of E6 with E6AP and E6BP, binding is less than 50% of the corresponding E6-DMSO value.)	80.9%				
CN1CCCN(C(=S)SSC(=S)N2CCCN(C)CC2)CC1 [Compound C35]			106%	+			
CC1CN(SSN2CC(C)OC(C)C2)CC(C)O1 (centres unmarked) [Compound C37]		+ (compound interferes in binding of E6 with E6AP and E6BP, binding is less than 50% of the corresponding E6-DMSO value.)		+	40.3%	+	
C1CN(SSN2CCSCC2)CCS1 [Compound C38]		+ (compound interferes in binding of E6 with E6AP and E6BP, binding is less than 50% of the corresponding E6-DMSO value.)		+	41.8%	+	
CN1CCN(SSN2CCN(C)CC2)CC1 [Compound C39]		+ (compound interferes in binding of E6 with E6AP and E6BP, binding is less than 50% of the corresponding E6-DMSO value.)		+	45%	+	
CCOC(=O)N1CCN(SSN2CCN(C(=O)OCC)CC2)CC1 [Compound C41]		+ (compound interferes in binding of E6 with E6AP and E6BP, binding is less than 50% of the corresponding E6-DMSO value.)		+	36.8%	+	
C1CCN(SSN2CCCC2)C1 [Compound C42]		+ (compound interferes in binding of E6 with E6AP and E6BP, binding is less than 50% of the corresponding E6-DMSO value.)		+	50.5%		
C1CCN(SSN2CCCCC2)CC1 [Compound C48]		+ (compound interferes in binding of E6 with E6AP and E6BP, binding is less than 50% of the corresponding E6-DMSO value.)		+	54.3%	+	
CCN(CC)SSN(CC)CC [Compound C49]		+ (compound interferes in binding of E6 with E6AP and E6BP, binding is less than 50% of the corresponding E6-DMSO value.)		+	57%		
c1ccc(N2CCN(SSN3CCN(c4ccccn4)CC3)CC2)nc1 [Compound C55]		+ (compound interferes in binding of E6 with E6AP and E6BP, binding is less than 50% of the corresponding E6-DMSO value.)		+	50.6%	+	
O=[N+]([O-])c1ccc(N2CCN(SSN3CCN(c4ccc([N+](=O)[O-])cc4)CC3)CC2)cc1 [Compound C69]		+ (compound interferes in binding of E6 with E6AP and E6BP, binding is less than 50% of the corresponding E6-DMSO value.)			0%		
COc1ccc(N2CCN(SSN3CCN(c4ccc(OC)cc4)CC3)CC2)cc1 [Compound C71]				+	0%	+	
CC1(C)COCN1SSN1COCC1(C)C [Compound C82]		+ (compound interferes in binding of E6 with E6AP and E6BP, binding is less than 50% of the corresponding E6-DMSO value.)		+	28.4%		
CCOC(=O)CN(Cc1ccccc1)SSN(CC(=O)OCC)Cc1ccccc1 [Compound C83]		+ (compound interferes in binding of E6 with E6AP and E6BP, binding is less than 50% of the corresponding E6-DMSO value.)		+	22%		
OO [Compound H2O2, H2O2, reference compound]							completely eliminated complex formation
C1CN1SSN1CC1 [Compound R24]		+ (compound interferes in binding of E6 with E6AP and E6BP, binding is less than 50% of the corresponding E6-DMSO value.)	71%	+			
CC1CN1SSN1CC1C (centres unmarked) [Compound R25]		+ (compound interferes in binding of E6 with E6AP and E6BP, binding is less than 50% of the corresponding E6-DMSO value.)	30.9%				
O=C(O)CN(CCN(CC(=O)O)CC(=O)O)CC(=O)O [EDTA, reference compound]							completely eliminated complex formation

— patent publication US7019000B1, “Method of treating a disease condition caused or exacerbated by an HPV” (Institute of Molecular & Cell Biology, priority 1998, dated 2006)
